Experimental data as given in publication PMC7317746 (Environmental and Molecular Mutagenesis, 2020).

Assays:
Format in all cases: in vivo, rat
male Sprague Dawley rats = experiment: Pig‐a assay
peripheral blood cells = experiment: Comet assay, peripheral blood cells
liver cells = experiment: Comet assay, liver cells
[1] = 1-Month Study, 40 mg/kg/day Days 1-3, Day 15, positive control
[2] = 1-Month Study, 40 mg/kg/day Days 1-3, Day 29, positive control
[3] = 1-Month Study, 40 mg/kg/day, Day -1 (pre-treatment)
[4] = 3-Day Study, 40 mg/kg/day Days 1-3, Day 15, positive control
[5] = 3-Day Study, 40 mg/kg/day Days 1-3, Day 30, positive control
[6] = 3-Day Study, 40 mg/kg/day Days 1-3, Day 45, positive control
[7] = 3-Day Study, 40 mg/kg/day, Day -4 (pre-treatment)
[8] = 1-Month Study, 200 mg/kg/day Days 28-29, Day 29, positive control
[9] = 3-Day Study, 200 mg/kg/day Days 2-3, Day 3, positive control

Question: Which results are given for `CCN(N=O)C(N)=O` [ENU, N‐ethyl‐N‐nitrosourea]?
Answer: %RETs mean ± SD (male Sprague Dawley rats; [1]): 3.1 ± 0.4%; Number of CD59‐Neg RBCs per 10^6 RBCs mean ± SD (male Sprague Dawley rats; [1]): 79.5 ± 12.3 per 10^6 RBCs; Number of CD59‐Neg RETs per 10^6 RETs mean ± SD (male Sprague Dawley rats; [1]): 356.2 ± 64.4 per 10^6 RETs; %RETs mean ± SD (male Sprague Dawley rats; [2]): 3.7 ± 0.7%; Number of CD59‐Neg RBCs per 10^6 RBCs mean ± SD (male Sprague Dawley rats; [2]): 211.0 ± 26.9 per 10^6 RBCs; Number of CD59‐Neg RETs per 10^6 RETs mean ± SD (male Sprague Dawley rats; [2]): 291.4 ± 33.7 per 10^6 RETs; %RETs mean ± SD (male Sprague Dawley rats; [3]): 4.8 ± 0.7%; Number of CD59‐Neg RBCs per 10^6 RBCs mean ± SD (male Sprague Dawley rats; [3]): 0.6 ± 0.3 per 10^6 RBCs; Number of CD59‐Neg RETs per 10^6 RETs mean ± SD (male Sprague Dawley rats; [3]): 0.5 ± 0.5 per 10^6 RETs; %RETs mean ± SD (male Sprague Dawley rats; [4]): 3.3 ± 1.1%; Number of CD59‐Neg RBCs per 10^6 RBCs mean ± SD (male Sprague Dawley rats; [4]): 97.7 ± 7.2 per 10^6 RBCs; Number of CD59‐Neg RETs per 10^6 RETs mean ± SD (male Sprague Dawley rats; [4]): 414.2 ± 6.5 per 10^6 RETs; %RETs mean ± SD (male Sprague Dawley rats; [5]): 3.3 ± 0.6%; Number of CD59‐Neg RBCs per 10^6 RBCs mean ± SD (male Sprague Dawley rats; [5]): 256.7 ± 62.0 per 10^6 RBCs; Number of CD59‐Neg RETs per 10^6 RETs mean ± SD (male Sprague Dawley rats; [5]): 282.7 ± 77.4 per 10^6 RETs; %RETs mean ± SD (male Sprague Dawley rats; [6]): 2.7 ± 0.7%; Number of CD59‐Neg RBCs per 10^6 RBCs mean ± SD (male Sprague Dawley rats; [6]): 382.7 ± 26.3 per 10^6 RBCs; Number of CD59‐Neg RETs per 10^6 RETs mean ± SD (male Sprague Dawley rats; [6]): 305.9 ± 59.5 per 10^6 RETs; %RETs mean ± SD (male Sprague Dawley rats; [7]): 3.2 ± 0.4%; Number of CD59‐Neg RBCs per 10^6 RBCs mean ± SD (male Sprague Dawley rats; [7]): 0.4 ± 0.1 per 10^6 RBCs; Number of CD59‐Neg RETs per 10^6 RETs mean ± SD (male Sprague Dawley rats; [7]): 1.6 ± 0.7 per 10^6 RETs

Question: Which results are given for `CCOS(C)(=O)=O` [EMS, ethyl methanesulfonate]?
Answer: Blood % tail intensity mean ± SD (peripheral blood cells; [8]): 26.41 ± 4.85 %; Blood % tail intensity mean ± SD (peripheral blood cells; [9]): 24.56 ± 1.94 %; Liver % tail intensity mean ± SD (liver cells; [8]): 30.79 ± 10.66 %; Liver % tail intensity mean ± SD (liver cells; [9]): 28.07 ± 1.64 %
